This is an account of results in PMC9887116, “SDI-118, a novel procognitive SV2A modulator: First-in-human randomized controlled trial including PET/fMRI assessment of target engagement” (Frontiers in Pharmacology, 2023).

On the set-up of data set [1]: species or system rats. To be noted: rat, in vivo.
The subject of data set [2] is screening panel of receptors and enzymes. The experiment in a line: screening panel of receptors and enzymes. To be noted: up to a concentration of 10 µM. As to the method:
There were no SAEs or adverse events leading to subject discontinuation from the study. […] The most frequently reported drug related TEAEs were dizziness, hypersomnia, and somnolence, the latter reported only at the highest dose tested (i.e. 80 mg). The onset time of these events was generally short after dose administration, and their duration was usually short with resolution on the same day of dosing or the day after at the most. These mild and transient side effects started at the 10 mg dose and were also observed at higher doses. […] Occupancy at the higher doses would then progressively increase to a maximum of 96% of the predicted maximum at the 80 mg dose. Thus, the observed mild and transient side effects could be consistent with a target related effect seen, in some individuals, at occupancy levels greater than ∼60%. […] Further studies will elucidate this. None of the observed clinically significant changes in vital signs, laboratory parameters, and ECG intervals during the study were considered related to the administration of SDI-118.

For data set [3], the target named is T1, SV2A (Homo sapiens, UniProt Q7L0J3).
T1 construct: from tissue; host or cells: brain of healthy male subjects, in vivo
T1 sequence (Q7L0J3 whole entry): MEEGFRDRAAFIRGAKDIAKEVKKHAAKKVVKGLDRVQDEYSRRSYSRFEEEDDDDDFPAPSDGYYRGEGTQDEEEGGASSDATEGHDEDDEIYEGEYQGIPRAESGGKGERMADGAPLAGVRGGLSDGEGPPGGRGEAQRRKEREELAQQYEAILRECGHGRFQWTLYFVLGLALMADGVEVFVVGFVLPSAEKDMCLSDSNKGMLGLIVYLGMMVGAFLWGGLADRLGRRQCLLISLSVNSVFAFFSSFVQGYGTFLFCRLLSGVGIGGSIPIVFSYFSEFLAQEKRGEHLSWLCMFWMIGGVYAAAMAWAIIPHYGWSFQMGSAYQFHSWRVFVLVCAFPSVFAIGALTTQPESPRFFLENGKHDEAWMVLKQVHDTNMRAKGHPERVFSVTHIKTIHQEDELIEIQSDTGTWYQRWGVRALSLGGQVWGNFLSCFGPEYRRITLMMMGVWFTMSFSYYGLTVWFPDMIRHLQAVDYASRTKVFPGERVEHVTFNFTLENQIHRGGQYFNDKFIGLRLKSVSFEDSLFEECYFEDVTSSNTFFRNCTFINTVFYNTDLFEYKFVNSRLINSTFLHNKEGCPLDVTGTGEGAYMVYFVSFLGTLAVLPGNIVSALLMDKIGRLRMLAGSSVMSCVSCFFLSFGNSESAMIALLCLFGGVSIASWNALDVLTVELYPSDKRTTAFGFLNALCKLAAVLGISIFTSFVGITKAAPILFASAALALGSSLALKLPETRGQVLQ
As to the kind of experiment: brain SV2A occupancy by [11C]-UCB-J PET and PK/PD Emax model, Part B. The class given is in vivo, human (healthy male subjects). As to the method: In Part B target occupancy in the brain was measured by PET-scans (GE Signa) with the PET-ligand [^11C]-UCB-J ([Nabulsi et al., 2016]; [Koole et al., 2019]) at three different time points: pre-dose, around Tmax (estimated on data collected in Part A), and approximately 24 h post-dose. [^11C]-UCB-J was administered as an intravenous bolus into the antecubital vein over at least 15 s, followed by saline flush. An arterial line in the radial artery was placed in each subject to collect arterial blood samples to reconstruct a metabolite-corrected arterial plasma input function.
Dynamic PET scans were acquired in 3D list-mode for 90 min. List-mode data were rebinned into […] with a gradually increasing frame duration (6 × 15 s—3 × 30 s—3 × 60 s—2 × 90 s—2 × 3 min—9 × 5 min—3 × 10 min) and corrected for deadtime, randoms, and scatter. To correct for attenuation, a Zero-Echo Time (ZTE) scan was acquired simultaneously with the PET data to generate a subject-specific, MR-based attenuation map. Each frame was reconstructed with an iterative algorithm (OSEM—Ordered Subsets Expectation Maximization, four iterations, 28 subsets), modeling detector response, and using time of flight information (TOF). Each reconstructed frame consisted of 89 slices with a matrix size of 192 × 192, corresponding to an in-plane pixel size of 1.56 mm and a slice separation of 2.78 mm. Finally, smoothing was performed by applying a Gaussian filter (4.5 mm Full Width Half Maximum–FWHM) to each time frame.
SDI-118 SV2A occupancy was estimated globally using a full kinetic one-tissue compartmental modeling approach with an arterial input function (1TCM), and target occupancy was assessed with a Lassen plot using 13 main regions of interest: the overall cortex, the frontal, temporal, parietal and occipital cortex, the insula, the anterior and posterior cingulate cortex, the cerebellum, the striatum, the thalamus, the hippocampus, and the brainstem.
The PK/PD analysis set included all subjects from Part B with at least one available valid combined measurement of PK and PD, who received treatment and experienced no protocol deviations with relevant impact on PK or PD data. The global target occupancy based on the 1TCM method was analyzed as a function of the first PK concentration during the Tmax and 24-h post-dose scans. To estimate the relationship between the observed concentration at the beginning of the PET measurement and the receptor occupancy, a mixed-effect maximal effective concentration (Emax) model with two parameters Emax and half maximal effective concentration (EC50), with a random intercept was used. Parameter estimates, standard errors, and 95% confidence intervals were reported. Predictions from the model were reported with 95% confidence and prediction intervals to inform the required doses to produce these target occupancy values at Tmax and 24-h post-dose.

Where [4] appears, read: Emax model excluding 22-h post-dose data of the 1 mg group.

Where “and” joins values, the source holds several entries; their conditions need not be identical. Equal entries are not always repeated.

As for `O=C1C[C@H](c2cc(F)c(F)c(F)c2)CN1Cn1ncnc1Cl` [SDI-118], in data set [1], the “no observed adverse effect level (NOAEL)” value is recorded as 150 mg/kg/day. Further, in data set [2], the “activity in screening panel of receptors and enzymes” value is listed as “no activity was observed”. The “mean SV2A occupancy” value in data set [3] (1 mg oral, approximately 24 h after administration) is about 0%; in data set [3] (1 mg oral, around Tmax (2 h post-dose), 1TC global method) it was 23%; in data set [3] (2 mg oral, approximately 24 h after administration), 20%; in data set [3] (2 mg oral, around Tmax, 1TC global method), 41%; in data set [3] (10 mg oral, approximately 24 h after administration), 48%; in data set [3] (10 mg oral, around Tmax, 1TC global method), 69% and ~70%. Also, the “mean SV2A occupancy” value in data set [3] (20 mg oral, approximately 24 h after administration) is 61%; in data set [3] (20 mg oral, around Tmax, 1TC global method (peak occupancy)) it was 76%. For the same compound, the “predicted mean SV2A occupancy at trough level at steady state” value in data set [3] (10 mg once a day, model prediction) is on record as 76%. In data set [3] (20 mg oral, around Tmax, Part B), this compound displayed a mean plasma concentration of 159 ± 20.5 ng/mL. Further, the “occupancy as share of predicted maximum” value in data set [3] (80 mg dose, predicted) is 96%. Moreover, the “EC50 of SV2A occupancy (plasma concentration)” value worked out at 0.0282 µg/mL in data set [3] (setting [4]) and 0.0273 µg/mL in data set [3] (mixed-effect Emax model, all data, 95% CI 18.4 to 36.3 ng/ml). In addition, the “Emax of SV2A occupancy” value came to 90.3% in data set [3] (setting [4]) and 89.2% in data set [3] (mixed-effect Emax model, all data, 95% CI 80.1%-98.4%). In data set [3] (Figure 3), the “plasma level predicted to render ~90% of maximal occupancy” value was about 200 ng/mL. In addition, the “EC50 of plasma concentration-occupancy relationship (Figure 3)” value in data set [3] (Tmax and 24 h post-dose, excluding 24 h data of 1 mg) is recorded as “around 25 ng/ml”. In addition, in data set [3] (mixed-effect Emax model), the “EC90 of SV2A occupancy (concentration where 90% of the maximum effect is reached)” value was found to be 0.245 µg/mL. The “occupancy levels at which mild and transient side effects were seen in some individuals” value in data set [3] (possible target related effect) is reported as over 60%.
